In patent US12622917B2, “High-activity Wnt pathway inhibitor compound” (ADLAI NORTYE BIOPHARMA CO., LTD., priority 2020, dated 2026):
Read-outs that look alike come from different tables or passages of the source.

Key:
[1] = system: Colo205-LUC-TCF/LEF M1 reporter cell line (Wnt pathway); assay: Colo205-LUC-TCF/LEF M1 reporter gene (luciferase) inhibition; assay type: cell-based; conditions: 4 hours incubation, luciferase readout
Procedure, shortened: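 Luminescent readout of TCF/LEF-regulated luciferase after a 4 h, 37° C compound exposure in a stable Colo205 reporter clone (10,000 cells/well). Serial 3-fold dilutions started at 20 uM; IC50 derived using DMSO-treated cells and no-cell wells as controls.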

Colo205 = assay: Proliferation inhibition, Wnt mutant cell line Colo205; assay type: cell-based; conditions: Colo205, Wnt pathway-dependent, 96 hours, read-out: Antiproliferative IC50 Colo205
Procedure, shortened: (§1)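 Cells were seeded at 1000 per well, incubated 20-24 h at 37° C in 5% CO2, then exposed to 3-fold serially diluted compound (top final concentration 20 uM) for 96 hours. Viability was read by a Promega cell viability assay; IC50 values were derived relative to DMSO-only and cell-free control wells.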

DU4475 = assay: Proliferation inhibition, Wnt mutant cell line DU4475; assay type: cell-based; conditions: DU4475, Wnt pathway-dependent, 96 hours, read-out: Antiproliferative IC50 DU4475
Procedure, shortened: as §1

Hela = assay: Proliferation inhibition, non-Wnt mutant control cell line Hela; assay type: cell-based; conditions: Wnt-independent control cell line, 96 hours, read-out: Antiproliferative IC50 Hela
Procedure, shortened: as §1

RKO = assay: Proliferation inhibition, non-Wnt mutant control cell line RKO; assay type: cell-based; conditions: Wnt-independent control cell line, 96 hours, read-out: Antiproliferative IC50 RKO
Procedure, shortened: as §1

NCI-H929 = assay: Proliferation inhibition, NCI-H929 cell line; assay type: cell-based, human; conditions: NCI-H929 cells, 96 hours culture, cell viability detection, read-out: Antiproliferative IC50 NCI-H929
Procedure, shortened: (§2)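 Wnt-dependent proliferation in HepG2 and NCI-H929 cells, seeded at 4000 cells/well and pre-incubated 20-24 h at 37 °C. Cells were then exposed for 96 h to 3-fold serial dilutions (top final concentration 20 uM), and viability was read by signal intensity. IC50 was referenced to DMSO-only wells and cell-free wells.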

HepG2 = assay: Proliferation inhibition, HepG2 cell line; assay type: cell-based; conditions: Homo sapiens; HepG2 cells, 96 hours culture, cell viability detection; read-out: Antiproliferative IC50 HepG2
Procedure, shortened: as §2

[2] = system: human myeloma cell NCI-H929 SCID xenograft; assay: Tumor growth inhibition, NCI-H929 mouse xenograft model; assay type: in vivo; conditions: 30 mg/kg, PO, QD x 21
Protocol: In this study, human myeloma cell NCI-H929 SCID xenograft model was used to evaluate the anti-tumor activity of compound 11 in vivo.
Female SCID were subcutaneously inoculated with human myeloma cells NCI-H929 to establish the NCI-H929 SCID xenograft model. After the tumor grew to an average tumor volume of about 80 mm^3, the tumor-bearing mice were randomly divided into two groups according to the tumor volume: the solvent-treated control group and the 30 mg/kg compound 11 group. Compound 11 was administered orally, once a day, and the administration cycle was 21 days. The tumor volume was measured every other day, and the body weight and tumor volume were measured on Day 21 (Table 4 and FIG. 1).

| Molecule | IC50 [1] [nM] | IC50 (Colo205; Homo sapiens, COLO 205) [nM] | IC50 (DU4475; Homo sapiens, DU-4475) [nM] | IC50 (Hela; Homo sapiens) [nM] | IC50 (RKO; Homo sapiens) [nM] | IC50 (NCI-H929; Homo sapiens) [nM] | IC50 (HepG2) [nM] | IC50 (Colo205) [nM] | IC50 (DU4475) [nM] | IC50 (Hela) [nM] | IC50 (RKO) [nM] | IC50 (NCI-H929) [nM] | % T/CRTV Day 21 [2] [%] | % TGITW Day 21 [2] [%] | % TGItv Day 21 [2] [%] | RTV Day 21 [2] | Tumor weight Day 21 [2] [g] |
| --- | --- | --- | --- | --- | --- | --- | --- | --- | --- | --- | --- | --- | --- | --- | --- | --- | --- |
| CC(C)[C@H]1C(=O)N2CCCc3nc(NCc4ccc(Oc5ccc(C(F)(F)F)nc5)nc4)nc(c32)N1C [117 (W237), (S)-5-isopropyl-4-methyl-2-(((6-((6-(trifluoromethyl)pyridin-3-yl)oxo)pyridin-3-yl)methyl)amino)-4,5,9,10-tetrahydro-6H,8H-pyrido[3,2,1-de]pteridin-6-one] | 4 | 3.4 | 8.2 | > 10000 | > 10000 | 27 | 3.1 | – | – | – | – | – | – | – | – | – | – |
| (S)-4,5-dimethyl-2-(((6-((6-(trifluoromethyl)pyridin-3-yl)oxy)pyridin-3-yl)methyl)amino)-4,5,9,10-tetrahydro-6H,8H-pyrido[3,2,1-de]pteridin-6-one [Example 11] | 61 | – | – | – | – | – | – | 32 | 37 | > 10000 | > 10000 | 55 | 1.59 | 98.86 | 98.42 | 0.33 | 0.023 |
